Some test systems named below: K562; OVCAR-3; OVCAR-8; CAKI-1; Hs-578T; SN12C; 786-0; NCI/ADR-RES; CCRF-CEM; SF-539; HL-60; SK-MEL-28; A498; HCC 2998; HOP-62; LOX IMVI; SR; MDA-MB-231; SNB-75; MDA-N.
What all share (experiment): NCI tumour cell line growth inhibition, 48 h

Structures are written as SMILES.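 Values below derive from 48-hour exposures of cells grown in 96-well plates, with endpoints linearly interpolated between the two concentrations bracketing the appropriate inhibition level. Here, GI50 denotes the concentration required for 50% inhibition of growth.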 The source made the active and inactive calls. Cut-off read from the data, not from the text of the source: active = GI50 up to about 1.1 µM and inactive = higher. Peptide text beside a SMILES is read from it. * marks the point of attachment. OSu = O=C1CCC(=O)N1O*

As to `N=c1c2ccccc2nc2oc3ccccc3n12`, the GI50 in the experiment on K562 was > 100 µM (inactive); in the experiment with OVCAR-3, > 10 µM (inactive); in the experiment with OVCAR-8, 37.5 µM (inactive); in the experiment with CAKI-1, 44.4 µM (inactive); in the experiment on Hs-578T it was 20.6 µM (inactive); with SN12C it was > 100 µM (inactive). Also, the GI50 was > 10 µM (inactive) in the experiment with 786-0; 31.5 µM (inactive) in the experiment on NCI/ADR-RES; 55 µM (inactive) with CCRF-CEM; 37.2 µM (inactive) with SF-539; > 100 µM (inactive) with HL-60; > 10 µM (inactive) in the experiment with SK-MEL-28. Further, the GI50 with A498 was 38.7 µM (inactive); with HCC 2998 it was > 100 µM (inactive); in the experiment on HOP-62 it was 23.2 µM (inactive); in the experiment on LOX IMVI it was 53.8 µM (inactive).

For `O=C1c2ccccc2C(=O)c2sc(Nc3ccc(Cl)c(Cl)c3)nc21`, the GI50 was 3.21 µM (inactive) in the experiment on K562; 2.49 µM (inactive) in the experiment on OVCAR-3; 3.7 µM (inactive) with OVCAR-8; 3.07 µM (inactive) in the experiment on CAKI-1; 6.92 µM (inactive) with Hs-578T; 2.52 µM (inactive) in the experiment with SR. In addition, the GI50 in the experiment with SN12C is 1.83 µM (inactive); in the experiment on 786-0, 1.82 µM (inactive); in the experiment on CCRF-CEM, 1.85 µM (inactive); with SF-539, 4.38 µM (inactive); in the experiment with HL-60, 0.256 µM (active); in the experiment on SK-MEL-28, 7.35 µM (inactive). Moreover, the GI50 is 16.6 µM (inactive) in the experiment on A498; 2.17 µM (inactive) in the experiment on MDA-MB-231; 8.05 µM (inactive) in the experiment with SNB-75; 15.3 µM (inactive) with HCC 2998; 7.38 µM (inactive) in the experiment with HOP-62; 2.17 µM (inactive) in the experiment with LOX IMVI.

Regarding `CC(=O)Oc1ccc2c(c1)Oc1cc(C(C)=O)ccc1C21OC(=O)c2ccccc21` (stereo unspecified), the GI50 was > 100 µM (inactive) in the experiment on K562; 60.3 µM (inactive) in the experiment with OVCAR-3; > 100 µM (inactive) in the experiment with OVCAR-8; > 100 µM (inactive) in the experiment with CAKI-1; > 100 µM (inactive) in the experiment with SN12C; > 100 µM (inactive) with 786-0. Besides, the GI50 with NCI/ADR-RES is > 100 µM (inactive); in the experiment with HL-60, 44.6 µM (inactive); with SK-MEL-28 it was > 100 µM (inactive); in the experiment on A498, > 100 µM (inactive); with MDA-MB-231, > 100 µM (inactive); in the experiment with SNB-75, 94.8 µM (inactive). The GI50 is > 100 µM (inactive) in the experiment on HCC 2998, > 100 µM (inactive) with MDA-N, 64.6 µM (inactive) with HOP-62 and > 100 µM (inactive) in the experiment with LOX IMVI.

In the case of `N=C1OC(c2cccc(Cl)c2)C(NNS(=O)(=O)c2ccccc2)=C1O` (stereo unspecified), the GI50 in the experiment on K562 is 3.69 µM (inactive); in the experiment with OVCAR-3, 23.1 µM (inactive); in the experiment with OVCAR-8 it was 30.5 µM (inactive); with CAKI-1, 31.4 µM (inactive); in the experiment with Hs-578T, 27.4 µM (inactive); with SR, 2.37 µM (inactive). In addition, the GI50 is 44.7 µM (inactive) in the experiment with SN12C; 24.8 µM (inactive) with 786-0; 2.32 µM (inactive) with CCRF-CEM; 33.4 µM (inactive) in the experiment on SF-539; 2.87 µM (inactive) in the experiment on HL-60; 20.9 µM (inactive) in the experiment on SK-MEL-28. The GI50 in the experiment with A498 was > 100 µM (inactive); in the experiment with MDA-MB-231, 18.2 µM (inactive); in the experiment on SNB-75 it was 26.9 µM (inactive); with HCC 2998, 36.4 µM (inactive); in the experiment with MDA-N, 14.5 µM (inactive); in the experiment on HOP-62, > 100 µM (inactive). Besides, in the experiment on LOX IMVI, the GI50 was 20.7 µM (inactive).

As for `CCOC(=O)C1=C(C)N(CC(C)C)C2(O)C(OC)CC(=O)C3C(=O)N(c4ccccc4)C(=O)C132` (stereo unspecified), the GI50 with K562 was 31.9 µM (inactive); in the experiment with OVCAR-3 it was 43.3 µM (inactive); in the experiment on OVCAR-8, 26.1 µM (inactive); in the experiment with CAKI-1 it was 37 µM (inactive); in the experiment on Hs-578T, 92.3 µM (inactive); in the experiment on SR it was 21.4 µM (inactive). The GI50 is 36 µM (inactive) with SN12C; 66.4 µM (inactive) with 786-0; 53.8 µM (inactive) in the experiment with NCI/ADR-RES; 40.4 µM (inactive) with CCRF-CEM; 49.4 µM (inactive) in the experiment with SF-539; 25 µM (inactive) in the experiment on HL-60. The GI50 with SK-MEL-28 was 23.8 µM (inactive); in the experiment with A498 it was 78.5 µM (inactive); with MDA-MB-231, 89.1 µM (inactive); in the experiment on SNB-75, 20 µM (inactive); in the experiment on HCC 2998 it was 24.8 µM (inactive); in the experiment with HOP-62, 68.7 µM (inactive). Further, in the experiment on LOX IMVI, the GI50 is 31.3 µM (inactive).

Consider `OCC1CCCC1O` (stereo unspecified), for which the GI50 with K562, in the experiment on OVCAR-3, in the experiment with OVCAR-8, with CAKI-1, in the experiment with SR and with SN12C was > 100 µM (inactive) each time. The GI50 with 786-0, in the experiment with NCI/ADR-RES, with CCRF-CEM, in the experiment with SF-539, in the experiment with HL-60 and in the experiment on SK-MEL-28 was > 100 µM (inactive) throughout. In addition, the GI50 in the experiment on A498, in the experiment with MDA-MB-231, in the experiment on SNB-75, with HCC 2998 and with MDA-N was > 100 µM (inactive) throughout.

Consider `O=S(=O)(CCn1c(Sc2ccccc2)c(Sc2ccccc2)c2ccccc21)c1ccccc1`, for which the GI50 was > 100 µM (inactive) in the experiment with K562; > 100 µM (inactive) in the experiment on OVCAR-3; > 100 µM (inactive) with OVCAR-8; 55.8 µM (inactive) with CAKI-1; 40.5 µM (inactive) in the experiment with Hs-578T; > 100 µM (inactive) in the experiment with SR. Moreover, the GI50 with SN12C, in the experiment on 786-0, with NCI/ADR-RES, in the experiment with CCRF-CEM, in the experiment with SF-539 and with HL-60 was > 100 µM (inactive) in each case. The GI50 with SK-MEL-28, with A498, in the experiment with MDA-MB-231, with SNB-75, with HCC 2998 and in the experiment on HOP-62 was > 100 µM (inactive) in each case. Besides, in the experiment on LOX IMVI, the GI50 is > 100 µM (inactive).

Turning to `COc1ccc(NC(C)=O)cc1N1C(=O)/C(=C\c2cc(OC)c(OC)c(OC)c2)SC1c1ccccc1` (stereo unspecified), the GI50 in the experiment with K562 was 30.9 µM (inactive); with OVCAR-3 it was 36.1 µM (inactive); with OVCAR-8, 48.1 µM (inactive); in the experiment with CAKI-1 it was 19 µM (inactive); in the experiment with SR, 27.8 µM (inactive); in the experiment with SN12C it was 40.2 µM (inactive). Besides, the GI50 in the experiment on 786-0 was 54 µM (inactive); in the experiment with NCI/ADR-RES it was 45.6 µM (inactive); in the experiment with CCRF-CEM it was 37 µM (inactive); in the experiment with SF-539 it was 64.6 µM (inactive); in the experiment on HL-60 it was 20.4 µM (inactive); in the experiment on SK-MEL-28, 41.9 µM (inactive). In addition, the GI50 with A498 is 75 µM (inactive); in the experiment on MDA-MB-231, 19.4 µM (inactive); in the experiment on SNB-75, 26.9 µM (inactive); in the experiment on HCC 2998, > 100 µM (inactive); in the experiment with MDA-N it was 25.5 µM (inactive); with HOP-62, 63.7 µM (inactive). Also, the GI50 with LOX IMVI was 39.3 µM (inactive).

With `Cc1ccc(S(=O)(=O)NC(=O)Nc2cccc(S(N)(=O)=O)c2)cc1`, the GI50 with K562, with OVCAR-3, with CAKI-1, in the experiment with Hs-578T, with SR and in the experiment with 786-0 was > 100 µM (inactive) throughout. The GI50 in the experiment with NCI/ADR-RES, in the experiment with SF-539, with HL-60, in the experiment with SK-MEL-28, in the experiment on A498 and in the experiment on MDA-MB-231 was > 100 µM (inactive) throughout. The GI50 in the experiment on SNB-75, in the experiment with HCC 2998, with HOP-62 and in the experiment with LOX IMVI was > 100 µM (inactive) in each case.

Take `COc1cc(C2c3cc4c(cc3[C@@H](Nc3ccc(N)cc3)C3COC(=O)[C@H]23)OCO4)cc(OC)c1O` (stereo partly specified): the GI50 in the experiment with K562 was 3.13 µM (inactive); in the experiment with OVCAR-3, 6.1 µM (inactive); in the experiment with OVCAR-8, 2.22 µM (inactive); with CAKI-1, 0.446 µM (active); in the experiment with SR, 0.205 µM (active); with SN12C it was 0.711 µM (active). Moreover, the GI50 in the experiment with 786-0 was 0.908 µM (active); with NCI/ADR-RES it was 3.75 µM (inactive); with CCRF-CEM, 0.222 µM (active); with SF-539, 1.07 µM (active); with SK-MEL-28 it was 6.76 µM (inactive); in the experiment on A498 it was 1.18 µM (inactive). Moreover, the GI50 was 12.3 µM (inactive) with MDA-MB-231; 1.94 µM (inactive) in the experiment on SNB-75; 3.27 µM (inactive) in the experiment on HCC 2998; 3.93 µM (inactive) with MDA-N; 0.363 µM (active) in the experiment on HOP-62; 0.395 µM (active) with LOX IMVI.

Regarding `NCCCCC(NC(=O)C(N)Cc1ccc(O)cc1)C(=O)NC(Cc1ccc(O)cc1)C(=O)NC(CCCCN)C(=O)ON1C(=O)CCC1=O` (stereo unspecified) (H-YKYK-OSu; configuration not given here), the GI50 in the experiment with K562, with OVCAR-8, in the experiment on Hs-578T, in the experiment with SR, in the experiment on SN12C and with 786-0 was > 100 µM (inactive) throughout. The GI50 in the experiment with HL-60, in the experiment with SK-MEL-28, with A498, in the experiment on MDA-MB-231, in the experiment with SNB-75 and in the experiment with HCC 2998 was > 100 µM (inactive) each time. Further, the GI50 in the experiment with MDA-N and in the experiment with HOP-62 was > 100 µM (inactive) throughout.
